Measured values: patent US20260206756A1, “COMPOUNDS AND METHODS OF TREATING OR PREVENTING A BACTERIAL INFECTION IN A PLANT” (Ohio State Innovation Foundation, priority 2023, published 2026)
“Also recorded” adds a separate entry of the source. Like-named read-outs stand apart in the source and are kept apart here.

How the values were obtained:
[1] = tested on: ‘California Wonder’ pepper seeds; test: Phytotoxicity on pepper seeds (germination, root and shoot length); type: in vivo, Capsicum annuum; settings: 14 days post treatment; PCs 200 μM; 1.2% thymol; 2% 2,4-D
Experimental: (§1) Phytotoxicity of the ten selected PCs on pepper tissues. The toxicity of the PCs to plant tissues was assessed on pepper seeds, seedlings, and fruits. […]
Toxicity on seeds. In 2 ml sterile glass vials, 1.5 ml of 1% molten water agar was prepared and supplemented with 200 μM of PCs. Four seeds (‘California Wonder’) were sown into the vials. […] After incubation, seed germination percentage, germling root and shoot length, and necrotic and chlorotic symptoms were recorded from eight treated seeds per treatment group. This was performed twice.

[2] = tested on: ‘California Wonder’ pepper seedlings; test: Phytotoxicity on pepper seedling cotyledons; type: in vivo, Capsicum annuum; settings: 7 days post application; PCs 200 μM; 1.2% thymol; 2% 2,4-D
Experimental: as §1
Toxicity on seedlings. ‘California Wonder’ pepper seeds were sown in sterile 2 ml glass vials containing 1.5 ml of 1% molten water agar. Four seeds were sown in each vial and incubated for 14 days in the dark at room temperature for the seedlings to sprout. Fifty microliters of PCs (200 μM final concentration) were deposited onto the cotyledons of the seedlings and incubated for another 7 days. After 7 days, necrotic and chlorotic symptoms were assessed for 16 treated seedlings per treatment group. This was performed twice.

[3] = tested on: ‘Sunset’ sweet bell pepper fruit; test: Phytotoxicity on bell pepper fruits; type: in vivo, Capsicum annuum; settings: 7 days post treatment; PCs 200 μM; 1.2% thymol; 2% 2,4-D
Experimental: as §1
Toxicity on bell pepper fruits. Pepper fruits were thoroughly washed in soapy water and dried prior to PC treatment. On the surface of each fruit Sul of the PCs (200 μM final concentration) were deposited and air dried under a laminar hood for 30 min. The fruits were incubated in the dark at room temperature and monitored daily for necrotic and chlorotic symptoms. This was performed twice.

[4] = tested on: Pss SM1042-14R in infested pepper seeds; test: Antimicrobial efficacy on pepper seeds artificially infested with Pss; type: in vivo, Pseudomonas syringae pv. syringae; settings: 20 days post infestation, 200 μM, 20 min soak
Experimental: Antimicrobial efficacy of ten selected PCs on pepper seeds artificially infested with Pss SM1042-14R. ‘California Wonder’ pepper seeds were used for artificial infestation with Pss SM1042-14R and PC treatment. Inoculum of Pss SM1042-14R was prepared by growing SM1042-14R in M9 minimal medium overnight as described above. The OD600 was adjusted to 0.1; approximately 1×10^8 CFU/ml. The adjusted inoculum (45 ml of inoculum for 4 g seeds) was transferred to a sterile glass beaker and placed in a Nucerite desiccator (Nalge Sybron, Milwaukee, WI, USA). Seeds were vacuum infiltrated with inoculum at 15 PSI for 5 min. Infested seeds were air-dried in a laminar flow hood at room temperature for 12 h. The dried seeds were transferred to 5 ml sterile tubes and soaked in 1 ml of PCs (200 μM) diluted in sterile water for 20 min. The seeds were air-dried again. Seed aliquots were collected at 1, 3-, 10-, 20-, and 30-days post infestation (dpi, 10 seeds per treatment group per time point). Bacterial populations were estimated by macerating five batches of two seeds per treatment group in 400 μl of 1×PBS in a Whirl Pak bag. […] This was performed twice.

[5] = tested on: Pss SM1042-14R on pepper seedlings; type: in vivo, Pseudomonas syringae pv. syringae; settings: 200 μM, 7 dpi; for Pseudomonas leaf spot incidence, Curative application / Pseudomonas leaf spot incidence, Preventative application: streptomycin 200 μg/ml, CuSO4 200 μM
[6] = tested on: Pseudomonas syringae pv. syringae (Pss) SM1038-14; test: Dose-response assay (MIC/MBC) in M9 minimal broth; settings: 48 h
Experimental: (§2) Minimum inhibitory concentration (MIC) and minimum bactericidal concentration (MBC) of the 15 PCs against 10 Pss strains. A dose-response assay was conducted with the 15 PCs identified during the primary screening against 10 Pss strains including the model strain, SM1042-14R. The dose-response assay was conducted as described above with concentrations of PCs ranging from 3.125 to 500 μM. Pss treated with non-amended M9 minimal media, 2% DMSO, or 50 μg/ml kanamycin were used as controls. The plate was incubated in a Sunrise Tecan kinetic microplate reader for 48 h at 28° C. The percentage of inhibition and cell viability were determined as described above.

[7] = tested on: Pseudomonas syringae pv. syringae (Pss) SM155-18; test: Dose-response assay (MIC/MBC) in M9 minimal broth; settings: 48 h
Experimental: (§3) Primary screening of 4,182 SMs was conducted using a high throughput screening method to identify SMs that inhibited the growth of Pss SM1042-14R strain. A fresh bacterial culture of SM1042-14R was grown in M9 minimal broth in a shaking incubator (180 rpm) for 12 h at 28° C. The bacterial culture was normalized to a final optical density (OD600) of 0.05 (c.a., 8.0×10^7 CFU/ml) using a Genesys 20 spectrophotometer (Thermo Scientific, Rockford, IL, USA). In a sterile flat-bottom 96-well plate, 98 μl of the normalized bacterial suspension was challenged with 2 μl of SMs (final concentration of 200 μM). Controls were bacteria challenged with 2% DMSO (positive control; μc+), 50 μg/ml kanamycin (negative control; μc−), or M9 broth alone (blank control). The plate was incubated in a Sunrise Tecan kinetic microplate reader (Tecan Group Ltd., San Jose, CA, USA) for 48 h at 28° C. OD600 was measured every 30 min.
(§4) The plate was agitated for 15 s at 180 rpm before reading the OD600. Growth inhibition of SM1042-14R by the SMs was calculated using the following formula: % of inhibition=(μc+−X)/(μc+−μc−)×100, where μc+ and μc− is the average final OD600 of the positive and negative controls, respectively, and X is the final OD600 of each of the bacterial culture treated with a designated SM. After the 48 h of incubation with the SMs at 28° C., the viability of the bacterial culture was assessed by plating 5 μl of the culture on YDC (Yeast Dextrose Carbonate) agar medium, incubating the plate at 28° C. and monitoring any bacterial colonies on the plate after 48 h.
(§5) A dose-response assay was conducted with the 15 PCs identified during the primary screening against 10 Pss strains including the model strain, SM1042-14R. The dose-response assay was conducted as described above with concentrations of PCs ranging from 3.125 to 500 μM. Pss treated with non-amended M9 minimal media, 2% DMSO, or 50 μg/ml kanamycin were used as controls. The plate was incubated in a Sunrise Tecan kinetic microplate reader for 48 h at 28° C. The percentage of inhibition and cell viability were determined as described above.

[8] = tested on: Pseudomonas syringae pv. syringae (Pss) SM1031-14; test: Dose-response assay (MIC/MBC) in M9 minimal broth; settings: 48 h
Experimental: as §3, §4, §5

[9] = tested on: Pseudomonas syringae pv. syringae (Pss) SM109-18; test: Dose-response assay (MIC/MBC) in M9 minimal broth; settings: 48 h
Experimental: as §3, §4, §5

[10] = tested on: Pseudomonas syringae pv. syringae (Pss) SM1030-14; test: Dose-response assay (MIC/MBC) in M9 minimal broth; settings: 48 h
Experimental: as §3, §4, §5

[11] = tested on: Pseudomonas syringae pv. syringae (Pss) SM914-13; test: Dose-response assay (MIC/MBC) in M9 minimal broth; settings: 48 h
Experimental: as §2

[12] = tested on: Pseudomonas syringae pv. syringae (Pss) SM04-2018-04; test: Dose-response assay (MIC/MBC) in M9 minimal broth; settings: 48 h
Experimental: as §2

[13] = tested on: Pseudomonas syringae pv. syringae (Pss) SM156-18; test: Dose-response assay (MIC/MBC) in M9 minimal broth; settings: 48 h
Experimental: as §2

[14] = tested on: Pseudomonas syringae pv. syringae (Pss) SM51-19; test: Dose-response assay (MIC/MBC) in M9 minimal broth; settings: 48 h
Experimental: as §2

[15] = tested on: Pseudomonas syringae pv. syringae (Pss) SM1042-14R; test: Dose-response assay (MIC/MBC) in M9 minimal broth; settings: strain SM1042-14R, 48 h, 28° C.
Experimental: as §3, §4, §5

[16] = preventative (1 day prior to inoculation)
[17] = strain SM1038-14, M9 broth, 28° C.
[18] = strain SM155-18, M9 broth, 28° C.
[19] = strain SM1031-14, M9 broth, 28° C.
[20] = strain SM109-18, M9 broth, 28° C.
[21] = strain SM1030-14, M9 broth, 28° C.
[22] = strain SM914-13, M9 broth, 28° C.
[23] = strain SM04-2018-04, M9 broth, 28° C.
[24] = strain SM156-18, M9 broth, 28° C.
[25] = strain SM51-19, M9 broth, 28° C.

SMILES	Pseudomonas leaf spot incidence, Curative application [5] [%]	Pseudomonas leaf spot incidence, Preventative application [5] [%]	MBC ([6]; Pseudomonas syringae) [µM]	MIC ([6]; Pseudomonas syringae) [µM]	MBC ([7]; Pseudomonas syringae) [µM]	MIC ([7]; Pseudomonas syringae) [µM]	MBC ([8]; Pseudomonas syringae) [µM]	MIC ([8]; Pseudomonas syringae) [µM]	MBC ([9]; Pseudomonas syringae) [µM]	MIC ([9]; Pseudomonas syringae) [µM]	MBC ([10]; Pseudomonas syringae) [µM]	MIC ([10]; Pseudomonas syringae) [µM]	MBC ([11]; Pseudomonas syringae) [µM]	MIC ([11]; Pseudomonas syringae) [µM]	MBC ([12]; Pseudomonas syringae) [µM]	MIC ([12]; Pseudomonas syringae) [µM]	MBC ([13]; Pseudomonas syringae) [µM]	MIC ([13]; Pseudomonas syringae) [µM]	MBC ([14]; Pseudomonas syringae) [µM]	MIC ([14]; Pseudomonas syringae) [µM]	other results
O=C(O)COc1ccc(Cl)cc1Cl [2,4-D]	–	–	–	–	–	–	–	–	–	–	–	–	–	–	–	–	–	–	–	–	root length of germlings [1]: 1.5±0.7 cm; shoot length of germlings [1]: 0 cm; necrotic or chlorotic symptoms on seedling cotyledons [2]: severe necrotic and chlorotic symptoms; also recorded: caused necrotic or chlorotic symptoms; necrotic or chlorotic symptoms on pepper fruit surface [3]: severe necrotic and chlorotic symptoms; also recorded: caused chlorosis and deformation of the fruit surface
O=S(=O)([O-])[O-].[Cu+2] [CuSO4, copper sulfate]	57	100	–	–	–	–	–	–	–	–	–	–	–	–	–	–	–	–	–	–	reduction in Pss load in infested seeds [4]: 1.9±0.5 log CFU/g; Pss reduction compared to the DMSO group ([5]; curative (1 dpi)): 1.1±0.5 log CFU/g; disease severity (number of lesions per two leaves) ([5]; curative (1 dpi), first trial): 28.1±13.9 lesions; disease severity (number of lesions per two leaves) [5, 16]: 188.4±163.5 lesions; reduction in Pss load compared to the DMSO group [5, 16]: 0.05±0.01 log CFU/g
CCCCCCCCCCCCCCCCn1c[n+](C)c2ccccc21 [PC1]	86	100	25	12.5	12.5	6.25	12.5	6.25	12.5	6.25	25	6.25	12.5	6.25	12.5	6.25	12.5	6.25	12.5	6.25	–
CCN1/C(=C/c2ccc3ccccc3[n+]2CC)C=Cc2ccccc21 [PC2]	86	100	25	12.5	25	12.5	25	6.25	12.5	12.5	50	6.25	25	6.25	25	6.25	25	6.25	50	6.25	–
CCCCCCCCCCCCCCCC[n+]1ccn(CC#N)c1.[Cl-] [PC3]	86	100	–	–	–	–	–	–	–	–	–	–	–	–	–	–	–	–	–	–	MBC [6, 17]: 50 µM; MIC [6, 17]: 25 µM; MBC [7, 18]: 50 µM; MIC [7, 18]: 25 µM; MBC [8, 19]: 25 µM; MIC [8, 19]: 25 µM; MBC [9, 20]: 25 µM; MIC [9, 20]: 25 µM; MBC [10, 21]: 50 µM; MIC [10, 21]: 25 µM; MBC [11, 22]: 25 µM; MIC [11, 22]: 12.5 µM; MBC [12, 23]: 25 µM; MIC [12, 23]: 12.5 µM; MBC [15]: 25 µM; MIC [15]: 25 µM; MBC [13, 24]: 50 µM; MIC [13, 24]: 25 µM; MBC [14, 25]: 50 µM; MIC [14, 25]: 25 µM
